Experimental data from patent US20130030001A1 (priority 2008, published 2013).
pIC50: −log10 of the molar value.

How the values were obtained:
[1] = biological target: T1, human muscarinic acetylcholine M3 receptor (Homo sapiens, UniProt P20309); assay: biochemical; type: binding
T1 construct: expressed in transfected cells; host or cells: CHO-K1 (Chinese Hamster Ovary) cell membranes

[2] = in vitro; conditions: human, plasma, pH 7.4

T1 sequence (P20309 whole entry): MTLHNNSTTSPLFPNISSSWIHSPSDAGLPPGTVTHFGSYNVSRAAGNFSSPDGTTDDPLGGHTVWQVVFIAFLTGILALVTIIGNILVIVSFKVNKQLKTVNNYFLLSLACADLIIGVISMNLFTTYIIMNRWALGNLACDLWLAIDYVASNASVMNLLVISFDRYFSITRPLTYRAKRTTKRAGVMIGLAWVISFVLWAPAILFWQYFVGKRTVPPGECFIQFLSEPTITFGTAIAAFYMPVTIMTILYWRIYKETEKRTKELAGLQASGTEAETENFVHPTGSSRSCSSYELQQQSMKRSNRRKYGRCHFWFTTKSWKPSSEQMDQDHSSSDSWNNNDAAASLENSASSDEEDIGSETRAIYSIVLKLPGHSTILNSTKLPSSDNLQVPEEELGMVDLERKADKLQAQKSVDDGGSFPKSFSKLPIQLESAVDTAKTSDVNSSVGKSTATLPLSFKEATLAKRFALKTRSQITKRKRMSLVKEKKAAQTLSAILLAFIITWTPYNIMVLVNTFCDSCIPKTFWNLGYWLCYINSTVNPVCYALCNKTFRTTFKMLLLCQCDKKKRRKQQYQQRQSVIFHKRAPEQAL

Structure (SMILES) | pIC50 ([1]; M3 binding IC50) | fraction unbound [2] | pIC50 ([1]; pIC50)
O=C(C[N+]12CCC(CC1)[C@@H](OC(=O)C1(c3cccs3)CCCCCC1)C2)Nc1cnccn1 [Example 11, (R)-1-(Pyrazin-2-ylcarbamoylmethyl)-3-(1-thiophen-2-yl-cycloheptanecarbonyloxy)-1-azonia-bicyclo[2.2.2]octane bromide] | > 8.70 | 0.048 | –
O=C(C[N+]12CCC(CC1)[C@@H](OC(=O)C1(c3cccc(F)c3)CCCCCC1)C2)Nc1ccon1 [Example 13, (R)-3-[1-(3-Fluoro-phenyl)-cycloheptanecarbonyloxy]-1-(isoxazol-3-ylcarbamoylmethyl)-1-azonia-bicyclo[2.2.2]octane bromide] | – | 0.068 | 10.10
O=C(C[N+]12CCC(CC1)[C@@H](OC(=O)C1(c3ccccc3)CCCCCC1)C2)Nc1ccccn1 [Example 15, (R)-3-(1-Phenyl-cycloheptanecarbonyloxy)-1-(pyridin-2-ylcarbamoylmethyl)-1-azonia-bicyclo[2.2.2]octane bromide] | – | 0.039 | –
O=C(C[N+]12CCC(CC1)[C@@H](OC(=O)C1(c3ccccc3)CCCCCC1)C2)Nc1ccc(F)cn1 [Example 17, (R)-1-[(5-Fluoro-pyridin-2-ylcarbamoyl)-methyl]-3-(1-phenyl-cycloheptanecarbonyloxy)-1-azonia-bicyclo[2.2.2]octane chloride] | – | 0.024 | –
Cc1cc(NC(=O)C[N+]23CCC(CC2)[C@@H](OC(=O)C2(c4ccccc4)CCCCCC2)C3)ccn1 [Example 20, (R)-1-[(2-Methyl-pyridin-4-ylcarbamoyl)-methyl]-3-(1-phenyl-cycloheptanecarbonyloxy)-1-azonia-bicyclo[2.2.2]octane chloride] | – | 0.018 | –
O=C(C[N+]12CCC(CC1)[C@@H](OC(=O)C1(c3ccccc3)CCCCCC1)C2)Nc1ccccc1 [Example 21, (R)-1-Phenylcarbamoylmethyl-3-(1-phenyl-cycloheptanecarbonyloxy)-1-azonia-bicyclo[2.2.2]octane bromide] | > 8.70 | 0.006 | –
O=C(C[N+]12CCC(CC1)[C@@H](OC(=O)C1(c3ccccc3)CCCCCC1)C2)Nc1ccc(Cl)cn1 [Example 45, (R)-1-[(5-Chloro-pyridin-2-ylcarbamoyl)-methyl]-3-(1-phenyl-cycloheptanecarbonyloxy)-1-azonia-bicyclo[2.2.2]octane chloride] | > 8.70 | – | –
Cc1ccc(NC(=O)C[N+]23CCC(CC2)[C@@H](OC(=O)C2(c4ccccc4)CCCCCC2)C3)cc1 [Example 46, (R)-3-(1-Phenyl-cycloheptanecarbonyloxy)-1-(p-tolylcarbamoyl-methyl)-1-azonia-bicyclo[2.2.2]octane bromide] | 8.00 to 8.70 | – | –
Cc1cccc(NC(=O)C[N+]23CCC(CC2)[C@@H](OC(=O)C2(c4ccccc4)CCCCCC2)C3)c1 [Example 47, (R)-3-(1-Phenyl-cycloheptanecarbonyloxy)-1-(m-tolylcarbamoyl-methyl)-1-azonia-bicyclo[2.2.2]octane bromide] | 8.00 to 8.70 | – | –
O=C(C[N+]12CCC(CC1)[C@@H](OC(=O)C1(c3ccccc3)CCCCCC1)C2)Nc1ncco1 [Example 48, (R)-1-(Oxazol-2-ylcarbamoylmethyl)-3-(1-phenyl-cycloheptanecarbonyloxy)-1-azonia-bicyclo[2.2.2]octane bromide] | 8.00 to 8.70 | – | –
Cc1ccc(NC(=O)C[N+]23CCC(CC2)[C@@H](OC(=O)C2(c4ccccc4)CCCCCC2)C3)nn1 [Example 49, (R)-1-[(6-Methyl-pyridazin-3-ylcarbamoyl)-methyl]-3-(1-phenyl-cycloheptanecarbonyloxy)-1-azonia-bicyclo[2.2.2]octane bromide] | > 8.70 | – | –
O=C(C[N+]12CCC(CC1)[C@@H](OC(=O)C1(c3ccccc3)CCCCCC1)C2)Nc1ncccn1 [Example 50, (R)-3-(1-Phenyl-cycloheptanecarbonyloxy)-1-(pyrimidin-2-ylcarbamoylmethyl)-1-azonia-bicyclo[2.2.2]octane chloride] | > 8.70 | – | –
N#Cc1ccc(NC(=O)C[N+]23CCC(CC2)[C@@H](OC(=O)C2(c4ccccc4)CCCCCC2)C3)nc1 [Example 51, (R)-1-[(5-Cyano-pyridin-2-ylcarbamoyl)-methyl]-3-(1-phenyl-cycloheptanecarbonyloxy)-1-azonia-bicyclo[2.2.2]octane chloride] | 8.00 to 8.70 | – | –
O=C(C[N+]12CCC(CC1)[C@@H](OC(=O)C1(c3ccccc3)CCCCCC1)C2)Nc1cncnc1 [Example 52, (R)-3-(1-Phenyl-cycloheptanecarbonyloxy)-1-(pyrimidin-5-ylcarbamoylmethyl)-1-azonia-bicyclo[2.2.2]octane chloride] | > 8.70 | – | –
O=C(C[N+]12CCC(CC1)[C@@H](OC(=O)C1(c3ccccc3)CCCCCC1)C2)Nc1ncccc1F [Example 53, (R)-1-[(3-Fluoro-pyridin-2-ylcarbamoyl)-methyl]-3-(1-phenyl-cycloheptanecarbonyloxy)-1-azonia-bicyclo[2.2.2]octane chloride] | 8.00 to 8.70 | – | –
O=C(C[N+]12CCC(CC1)[C@@H](OC(=O)C1(c3ccccc3)CCCCCC1)C2)Nc1ccncc1F [Example 54, (R)-1-[(3-Fluoro-pyridin-4-ylcarbamoyl)-methyl]-3-(1-phenyl-cycloheptanecarbonyloxy)-1-azonia-bicyclo[2.2.2]octane chloride] | > 8.70 | – | –
O=C(NCC[N+]12CCC(CC1)[C@@H](OC(=O)C1(c3ccccc3)CCCCCC1)C2)c1cnccn1 [Example 55, (R)-3-(1-Phenyl-cycloheptanecarbonyloxy)-1-{2-[(pyrazine-2-carbonyl)-amino]-ethyl}-1-azonia-bicyclo[2.2.2]octane bromide] | 8.00 to 8.70 | – | –
O=C(C[N+]12CCC(CC1)[C@@H](OC(=O)C1(c3ccccc3)CCCCCC1)C2)Nc1ncns1 [Example 56, (R)-3-(1-Phenyl-cycloheptanecarbonyloxy)-1-([1,2,4]thiadiazol-5-ylcarbamoylmethyl)-1-azonia-bicyclo[2.2.2]octane chloride] | 8.00 to 8.70 | – | –
O=C(NCCC[N+]12CCC(CC1)[C@@H](OC(=O)C1(c3ccccc3)CCCCCC1)C2)c1ccccn1 [Example 57, (R)-3-(1-Phenyl-cycloheptanecarbonyloxy)-1-{3-[(pyridine-2-carbonyl)-amino]-propyl}-1-azonia-bicyclo[2.2.2]octane bromide] | 8.00 to 8.70 | – | –
Cc1cc(NC(=O)C[N+]23CCC(CC2)[C@@H](OC(=O)C2(c4ccccc4)CCCCCC2)C3)ncn1 [Example 59, (R)-1-[(6-Methyl-pyrimidin-4-ylcarbamoyl)-methyl]-3-(1-phenyl-cycloheptanecarbonyloxy)-1-azonia-bicyclo[2.2.2]octane chloride] | 8.00 to 8.70 | – | –
O=C(NCC[N+]12CCC(CC1)[C@@H](OC(=O)C1(c3ccccc3)CCCCCC1)C2)c1ccccn1 [Example 60, (R)-3-(1-Phenyl-cycloheptanecarbonyloxy)-1-{2-[(pyridine-2-carbonyl)-amino]-ethyl}-1-azonia-bicyclo[2.2.2]octane bromide] | > 8.70 | – | –
O=C(O[C@H]1C[N+]2(CCCc3ccncc3)CCC1CC2)C1(c2ccccc2)CCCCCC1 [Example 61, (R)-3-(1-Phenyl-cycloheptanecarbonyloxy)-1-(3-pyridin-4-yl-propyl)-1-azonia-bicyclo[2.2.2]octane bromide] | > 8.70 | – | –
